Measurements reported in patent US7169763B2, “Cytochrome P450 3A inhibitors and enhancers” (priority 2002, dated 2007).

Tested on: CYP3A
Experiment: Determination of CYP3A activity by erythromycin demethylation method (rat liver homogenate/microsomes)
Set-up: CYP3A Activity (percentage of control): dose or concentration left out as unconfirmed
Details: for inhibitory effects on rat liver CYP3A (in words): summary of Table 1; for enhancing effects on rat hepatic CYP3A (in words): summary of Table 2
[1] = inhibitor concentration 0.004, Table 1 Inhibition
[2] = inhibitor concentration 0.04, Table 1 Inhibition
[3] = inhibitor concentration 0.1, Table 1 Inhibition
[4] = inhibitor concentration 0.4, Table 1 Inhibition
[5] = inhibitor concentration 77.07, Table 1 Inhibition
[6] = inhibitor concentration 1.55, Table 1 Inhibition
[7] = inhibitor concentration 4.3, Table 1 Inhibition

Molecule | CYP3A Activity (percentage of control) [1] | CYP3A Activity (percentage of control) [2] | inhibitory effects on rat liver CYP3A (in words) | CYP3A Activity (percentage of control) [4] | further results
O=c1cc(-c2ccccc2)oc2ccc3ccccc3c12 [β-Naphthoflavone] |  |  |  |  | CYP3A Activity (percentage of control) (inhibitor concentration 0.87, Table 1 Inhibition): 42.41 ± 4.08 percentage of control
O=c1cc(-c2ccccc2)oc2cc(O)c(O)c(O)c12 [baicalein] | 84.66 ± 3.04 percentage of control | 81.59 ± 4.76 percentage of control |  |  | CYP3A Activity (percentage of control) [3]: 64.47 ± 4.75 percentage of control
C[C@@H]1O[C@@H](O[C@H]2[C@H](Oc3cc(O)c4c(c3)O[C@H](c3ccc(O)cc3)CC4=O)O[C@H](CO)[C@@H](O)[C@@H]2O)[C@H](O)[C@H](O)[C@H]1O [Narigin] |  |  | particularly effective |  | CYP3A Activity (percentage of control) (inhibitor concentration 21.67, Table 1 Inhibition): 56.22 ± 22.87 percentage of control
COc1ccc([C@@H]2CC(=O)c3c(O)cc(O)cc3O2)cc1O [hesperetin] | 84.66 ± 3.04 percentage of control | 75.89 ± 3.31 percentage of control | particularly effective | 48.25 ± 4.62 percentage of control | 
CC(Cc1ccc(O)c(O)c1)C(C)Cc1ccc(O)c(O)c1 (stereo not drawn) [Nordihydroguaiaretic Acid] | 71.26 ± 1.95 percentage of control | 60.28 ± 1.95 percentage of control | particularly effective | 42.53 ± 0.49 percentage of control | CYP3A Activity (percentage of control) (inhibitor concentration 3.09, Table 1 Inhibition): 8.96 ± 1.79 percentage of control
COc1ccc(-c2coc3cc(O)ccc3c2=O)cc1 [formononetin] | 78.78 ± 2.76 percentage of control | 92.06 ± 0.77 percentage of control |  |  | CYP3A Activity (percentage of control) (enhancer concentration 0.123, Table 2 Enhancement): 113.74 ± 8.87 percentage of control; CYP3A Activity (percentage of control) [3]: 70.37 ± 5.79 percentage of control; enhancing effects on rat hepatic CYP3A (in words): particularly effective
CC1(C)CC[C@]2(C(=O)O)CC[C@]3(C)C(=CC[C@@H]4[C@@]5(C)CC[C@H](O)C(C)(C)[C@@H]5CC[C@]43C)[C@@H]2C1 [Oleanolic acid] |  |  |  |  | CYP3A Activity (percentage of control) (inhibitor concentration 0.522, Table 1 Inhibition): 55.95 ± 4.45 percentage of control; CYP3A Activity (percentage of control) [5]: 44.64 ± 7.92 percentage of control
O=C1C[C@@H](c2ccc(O)cc2)Oc2cc(O)cc(O)c21 [Nariagenin] | 81.63 ± 5.21 percentage of control | 62.37 ± 12.33 percentage of control |  | 60.54 ± 15.51 percentage of control | CYP3A Activity (percentage of control) [6]: 47.07 ± 9.87 percentage of control
Oc1cc(O)c2c(c1)O[C@@H](c1ccc(O)c(O)c1)[C@@H](O)C2 [(+)-epicatechin] |  |  |  |  | CYP3A Activity (percentage of control) (inhibitor concentration 0.45, Table 1 Inhibition): 14.66 ± 7.66 percentage of control; CYP3A Activity (percentage of control) (inhibitor concentration 1.41, Table 1 Inhibition): 23.29 ± 5.28 percentage of control; CYP3A Activity (percentage of control) [6]: 27.96 ± 5.07 percentage of control
CC(=O)OCCCc1ccccc1 [3-phenylpropyl acetate] | 60.33 ± 2.18 percentage of control | 70.50 ± 0.59 percentage of control |  | 53.89 ± 4.43 percentage of control | 
O=c1c(O)c(-c2ccc(O)cc2)oc2cc(O)cc(O)c12 [kaempferol] | 73.03 ± 2.30 percentage of control | 76.57 ± 3.83 percentage of control |  | 80.11 ± 8.11 percentage of control | CYP3A Activity (percentage of control) (enhancer concentration 1.46, Table 2 Enhancement): 111.35 ± 27.88 percentage of control
COc1ccc([C@@H]2CC(=O)c3c(O)cc(O[C@@H]4O[C@H](CO[C@@H]5O[C@@H](C)[C@H](O)[C@@H](O)[C@H]5O)[C@@H](O)[C@H](O)[C@H]4O)cc3O2)cc1O [hesperidin] | 24.05 ± 5.06 percentage of control | 103.79 ± 6.37 percentage of control | particularly effective | 80.75 ± 4.18 percentage of control | 
C=CC(=C)CCC=C(C)C [β-myrcene] |  |  | particularly effective |  | CYP3A Activity (percentage of control) [7]: 55.95 ± 4.45 percentage of control
O=c1ccc2ccc(O)cc2o1 [umbelliferone] | 89.00 ± 12.02 percentage of control | 84.87 ± 6.93 percentage of control |  | 90.00 ± 4.20 percentage of control | CYP3A Activity (percentage of control) (inhibitor concentration 1.84, Table 1 Inhibition): 76.22 ± 2.73 percentage of control; CYP3A Activity (percentage of control) (inhibitor concentration 5.43, Table 1 Inhibition): 98.85 ± 14.19 percentage of control; CYP3A Activity (percentage of control) (inhibitor concentration 16.96, Table 1 Inhibition): 90.33 ± 1.63 percentage of control
O=c1cc(-c2ccc(O)c(O)c2)oc2cc(O)cc(O)c12 [Luteolin] | 88.22 ± 0.00 percentage of control | 94.10 ± 10.37 percentage of control |  | 106.51 ± 8.16 percentage of control | CYP3A Activity (percentage of control) (inhibitor concentration 1.56, Table 1 Inhibition): 36.32 ± 1.26 percentage of control
O=c1cc(-c2ccccc2)oc2c1ccc1ccccc12 [α-Naphthoflavone] |  |  |  |  | CYP3A Activity (percentage of control) (inhibitor concentration 1.24, Table 1 Inhibition): 43.52 ± 2.93 percentage of control
O=C(O)c1cc(O)c(O)c(O)c1 [Gallic acid] |  |  | particularly effective |  | CYP3A Activity (percentage of control) [7]: 43.86 ± 4.45 percentage of control; CYP3A Activity (percentage of control) (inhibitor concentration 24.66, Table 1 Inhibition): 43.65 ± 0.57 percentage of control; CYP3A Activity (percentage of control) [5]: 44.09 ± 4.39 percentage of control
C[C@@H]1O[C@@H](Oc2c(-c3ccc(O)c(O)c3)oc3cc(O)cc(O)c3c2=O)[C@H](O)[C@H](O)[C@H]1O [quercitrin] | 55.06 ± 5.34 percentage of control | 73.56 ± 5.96 percentage of control |  | 98.67 ± 7.51 percentage of control | 
CC1(C)[C@@H](O[C@H]2O[C@H](C(=O)O)[C@@H](O)[C@H](O)[C@H]2O[C@@H]2O[C@H](C(=O)O)[C@@H](O)[C@H](O)[C@H]2O)CC[C@]2(C)[C@H]3C(=O)C=C4[C@@H]5C[C@@](C)(C(=O)O)CC[C@]5(C)CC[C@@]4(C)[C@]3(C)CC[C@@H]12 [Glycyrrhizin] |  |  |  |  | CYP3A Activity (percentage of control) (inhibitor concentration 0.269, Table 1 Inhibition): 42.96 ± 3.75 percentage of control
CCCCCCCCCCCCO [Lauryl alcohol] |  |  | particularly effective |  | CYP3A Activity (percentage of control) (inhibitor concentration 739.88, Table 1 Inhibition): 18.58 ± 1.46 percentage of control
CC(C)[C@@H](C)/C=C/[C@@H](C)[C@H]1CC[C@H]2C3=CC=C4C[C@@H](O)CC[C@]4(C)[C@H]3CC[C@]12C [ergosterol] | 64.59 ± 3.34 percentage of control | 63.71 ± 11.57 percentage of control |  | 59.57 ± 5.41 percentage of control | 
O=c1c(O)c(-c2ccc(O)c(O)c2)oc2cc(O)cc(O)c12 [quercetin] | 75.76 ± 7.97 percentage of control | 77.52 ± 15.98 percentage of control |  | 91.62 ± 0.76 percentage of control | 
Oc1cc(O)c2c(c1)O[C@H](c1ccc(O)c(O)c1)[C@@H](O)C2 (relative stereo) [(+)-catechin, 2R-trans-2-(3,4-dihydroxyphenyl)-3,4-dihydro-2H-1-benopyran-3,5,7-triol] | 59.31 ± 2.94 percentage of control | 62.70 ± 8.53 percentage of control | particularly effective | 45.42 ± 6.13 percentage of control | 
Luteolin-7-glycoside |  | 98.71 ± 19.74 percentage of control |  |  | CYP3A Activity (percentage of control) (enhancer concentration 0.004, Table 2 Enhancement): 122.89 ± 40.06 percentage of control; CYP3A Activity (percentage of control) (enhancer concentration 0.1, Table 2 Enhancement): 113.09 ± 5.99 percentage of control; CYP3A Activity (percentage of control) (inhibitor concentration 0.0078, Table 1 Inhibition): 46.68 ± 0.17 percentage of control; enhancing effects on rat hepatic CYP3A (in words): particularly effective
CC1=CCC(C(C)(C)O)CC1 (stereo not drawn) [α-terpineol] |  |  |  |  | CYP3A Activity (percentage of control) (inhibitor concentration 501.93, Table 1 Inhibition): 9.29 ± 1.07 percentage of control
O=c1cc(-c2ccc(O)cc2)oc2cc(O)cc(O)c12 [apigenin] | 52.96 ± 1.15 percentage of control | 54.64 ± 5.16 percentage of control |  |  | CYP3A Activity (percentage of control) (enhancer concentration 0.22, Table 2 Enhancement): 108.62 ± 1.28 percentage of control; CYP3A Activity (percentage of control) [3]: 59.94 ± 2.50 percentage of control; enhancing effects on rat hepatic CYP3A (in words): particularly effective
